Numbered stars: 1 amine (or outer) side, 2 acyl side, 3 side chain; on linkers, the order of the positions; unused ones are H or OH. Bridge positions count the residues as written; N and C are the ends. Square brackets hold non-standard residues; d marks the D form. Peptide text beside a SMILES is read from it. X1 = O=S(=O)(F)Oc1cc(C[*:1])cc(C[*:2])c1; Pra = C#CC[C@H](N)C(=O)O
These compounds were tested against full-length spike Omicron BA2 variant (Severe acute respiratory syndrome coronavirus 2, UniProt P0DTC2, A27S/A892P/A899P/A942P/D405N/D614G/D796Y/DEL24-26/E484A/F817P/G142D/G339D/H655Y/K417N/K986P/N440K/N501Y/N679K/N764K/N969K/P681H/Q493R/Q498R/Q954H/R408S/R683A/R685A/S371F/S373P/S375F/S477N/T19I/T376A/T478K/V213G/V987P/Y505H).
Type: binding, SARS-CoV-2

Structure (SMILES)	spike labeling
C#CC[C@H](N)C(=O)N[C@@H](CCC(N)=O)C(=O)N[C@H]1CSCc2cc(cc(OS(=O)(=O)F)c2)CSC[C@@H](C(=O)NCC(N)=O)NC(=O)[C@H](CC(C)C)NC(=O)[C@H](C(C)C)NC(=O)[C@H](Cc2ccc(O)cc2)NC(=O)[C@H](CC(C)C)NC(=O)[C@H](CC(=O)O)NC(=O)[C@H](CCC(N)=O)NC(=O)[C@H](C(C)C)NC1=O [CP_SW3A] (H-[Pra]QCVQDLYVLCG-NH2; linker 3-11 via X1)	highest gel labeling intensity
C#CC[C@H](NC(=O)[C@H](CCC(N)=O)NC(=O)[C@@H]1CSCc2cc(cc(OS(=O)(=O)F)c2)CSC[C@H](NC(=O)CN)C(=O)N[C@@H](CC(C)C)C(=O)N[C@@H](C(C)C)C(=O)N[C@@H](Cc2ccc(O)cc2)C(=O)N[C@@H](CC(C)C)C(=O)N[C@@H](CC(=O)O)C(=O)N[C@@H](CCC(N)=O)C(=O)N[C@@H](C(C)C)C(=O)N1)C(N)=O [CP_SW3A_S1] (H-GCLVYLDQVCQ[Pra]-NH2; linker 2-10 via X1)	dramatically reduced labeling
C#CC[C@H](N)C(=O)N[C@@H](CCC(N)=O)C(=O)N[C@H]1CSCc2cc(cc(OS(=O)(=O)F)c2)CSC[C@@H](C(=O)NCC(N)=O)NC(=O)[C@H](C(C)C)NC(=O)[C@H](CCC(N)=O)NC(=O)[C@H](CC(=O)O)NC(=O)[C@H](CC(C)C)NC(=O)[C@H](Cc2ccc(O)cc2)NC(=O)[C@H](C(C)C)NC(=O)[C@H](CC(C)C)NC1=O [CP_SW3A_S2] (H-[Pra]QCLVYLDQVCG-NH2; linker 3-11 via X1)	dramatically reduced labeling
